Values quoted from earlier work in patent US20240269084A1, “DELAYED RELEASE COMPOSITIONS OF DIMETHYL FUMARATE” (Zim Laboratories Limited, priority 2021, published 2024).
Counter-ions that a name gives are not always drawn.

Solubility in water: highly soluble in water
Compound: COC(=O)/C=C/C(=O)OC [Dimethyl fumarate, dimethyl (E) butenedioate]
